From US20240050392A1, “COMPOSITIONS AND METHODS FOR IMPROVED TREATMENT OF PLATINUM-BASED CHEMOTHERAPEUTIC RESISTANT TUMORS” (THE REGENTS OF THE UNIVERSITY OF THE COLORADO, A BODY …, priority 2021, published 2024)

Key:
[1] = biological target: T1, volume regulated anion channel (VRAC), LRRC8A and LRRC8D (Homo sapiens, UniProt Q7L1W4+Q8IWT6); conditions: as reported; cited from earlier work
T1 sequence (Q8IWT6 1-810): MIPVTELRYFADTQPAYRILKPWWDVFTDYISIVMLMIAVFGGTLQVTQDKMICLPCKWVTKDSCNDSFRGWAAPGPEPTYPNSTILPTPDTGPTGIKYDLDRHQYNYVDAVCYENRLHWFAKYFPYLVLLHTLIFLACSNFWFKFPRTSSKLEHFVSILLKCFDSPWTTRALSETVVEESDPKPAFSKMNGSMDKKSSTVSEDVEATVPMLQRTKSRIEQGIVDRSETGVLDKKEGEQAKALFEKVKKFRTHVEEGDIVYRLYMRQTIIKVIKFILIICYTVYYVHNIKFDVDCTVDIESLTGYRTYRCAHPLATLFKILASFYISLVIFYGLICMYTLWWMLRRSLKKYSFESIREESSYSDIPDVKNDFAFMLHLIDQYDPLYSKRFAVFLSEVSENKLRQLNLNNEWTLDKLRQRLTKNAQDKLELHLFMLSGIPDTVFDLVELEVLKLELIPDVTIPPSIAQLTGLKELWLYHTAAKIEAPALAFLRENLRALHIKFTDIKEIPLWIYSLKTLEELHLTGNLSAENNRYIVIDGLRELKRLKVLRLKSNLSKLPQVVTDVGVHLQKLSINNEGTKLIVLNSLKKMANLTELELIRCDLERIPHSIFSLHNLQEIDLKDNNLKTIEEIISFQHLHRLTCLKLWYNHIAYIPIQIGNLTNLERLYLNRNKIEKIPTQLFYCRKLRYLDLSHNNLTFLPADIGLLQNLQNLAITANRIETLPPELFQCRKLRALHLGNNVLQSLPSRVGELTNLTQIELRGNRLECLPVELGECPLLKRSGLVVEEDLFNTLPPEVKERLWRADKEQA
T1 sequence (Q7L1W4 1-858): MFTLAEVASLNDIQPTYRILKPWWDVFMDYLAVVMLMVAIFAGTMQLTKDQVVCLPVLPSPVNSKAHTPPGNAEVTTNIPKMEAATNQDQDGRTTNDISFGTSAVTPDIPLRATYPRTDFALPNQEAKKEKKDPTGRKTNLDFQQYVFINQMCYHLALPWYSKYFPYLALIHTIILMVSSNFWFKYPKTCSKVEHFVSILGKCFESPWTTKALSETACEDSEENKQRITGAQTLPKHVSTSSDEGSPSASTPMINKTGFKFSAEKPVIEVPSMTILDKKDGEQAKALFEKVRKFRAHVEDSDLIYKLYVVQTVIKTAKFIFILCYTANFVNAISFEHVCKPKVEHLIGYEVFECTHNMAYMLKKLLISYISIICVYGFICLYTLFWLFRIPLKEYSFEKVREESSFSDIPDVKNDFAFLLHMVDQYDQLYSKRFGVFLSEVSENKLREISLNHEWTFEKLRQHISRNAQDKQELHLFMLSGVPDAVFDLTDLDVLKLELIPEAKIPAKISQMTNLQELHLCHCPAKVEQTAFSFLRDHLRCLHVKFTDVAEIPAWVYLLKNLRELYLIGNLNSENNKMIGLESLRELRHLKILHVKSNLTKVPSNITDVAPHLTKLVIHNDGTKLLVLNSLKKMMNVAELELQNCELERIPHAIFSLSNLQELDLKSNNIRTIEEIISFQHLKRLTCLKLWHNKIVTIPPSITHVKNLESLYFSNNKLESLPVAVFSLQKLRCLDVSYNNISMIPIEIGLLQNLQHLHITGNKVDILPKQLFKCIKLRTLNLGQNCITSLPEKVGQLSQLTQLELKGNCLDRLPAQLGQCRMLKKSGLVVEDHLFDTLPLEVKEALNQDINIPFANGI

TCCSUP cells = test: Intracellular cisplatin measurements using CyTOF in TCCSUP cells; assay type: cell-based, human
Description: To validate the role of LRRC8D in cisplatin import, intracellular cisplatin was measured in the TCCSUP cells. […] In contrast to the KU1919, 5637, and T24 cells (FIGS. 12C-12E), NPEPPS knockdown had very little effect on the GemCis-resistant cells (median Pt 195=28) (FIGS. 12I-12J) given that the TCCSUP-GemCis cells have a focal deletion of LRRC8D (FIGS. 9A-9B). However, when LRRC8D was overexpressed, cisplatin import was restored to the levels of the parental cell line (FIG. 12K).
shRNA-mediated knockdown experiments. Lentiviral production and transduction were carried out as follows. In brief, plasmids from the RNAi Consortium (TRC) collection (TRC construct numbers TRCN0000073838, TRCN0000073839 and TRCN0000073840) were used for targeting NPEPPS were selected based on predicted knockdown efficiency; non-targeting controls used were SHC002 and SHC016. 2 μg of target shRNA construct and 2 μg of 3:1 ratio of psPAX2 (Addgene) and pMD2.G (Addgene) were transfected into HEK293FT cells using 2 μg of Polyethylenimine (Polysciences). Lentiviral particles containing media was filtered using 0.45 μm cellulose acetate syringe filter and used for transduction. Puromycin selection was performed at doses used for CRISPR library screening or in some cases, cells were re-selected with higher doses of puromycin (10 μg/mL), in order to ensure complete elimination of non-transduced cells. Selected cells were frozen at early passage and early passage cells were used for all experiments.
Intracellular cisplatin measurements using CyTOF. Cell lines were cultured for several passages in IMDM+10% FBS. […] After dissociation, cells were counted by Trypan blue staining and then placed in separate tubes at 3×10^5 cells. […] Relative cisplatin intensity (defined by ^195Platinum isotopic mass intensity) was analyzed among nucleated ^191Iridium+^193Iridium+events defined by Boolean gating within FlowJo 10.7.1.

In the case of `N.N.[Cl][Pt][Cl]` [cisplatin], the “share of intracellular cisplatin transported through VRAC channels” value [1] is given as 50-70%, the “intracellular cisplatin, median Pt 195” value (TCCSUP cells; TCCSUP parental cells) is given as 189 and the “intracellular cisplatin, median Pt 195” value (TCCSUP cells; TCCSUP-GemCis cells) is given as 22. For the same molecule, the “intracellular cisplatin, median Pt 195” value (TCCSUP cells; TCCSUP-GemCis cells, NPEPPS knockdown) was 28.
